Measurements from patent US20260275280A1, “DIRECTED DIFFERENTIATION PROTOCOLS TO DERIVE BONE FIDE SPINAL SENSORY INTERNEURONS” (THE REGENTS OF THE UNIVERSITY OF CALIFORNIA, priority 2022, published 2026).
Several values for one entry are separate records, joined by “and”; a condition that tells them apart may be missing. Equal entries are not always repeated.

Assays:
[1] = system: CHIR-expanded EBs; test: Differentiation of CHIR-expanded EBs on Matrigel (IHC, RT-qPCR at day 10); type: cell-based, mouse
Description: Embryoid body (EB) differentiation: To induce differentiation, EBs were dissociated into smaller clumps by a 5-7-minute treatment with cold 0.25% Trypsin (Gibco), followed by trituration. Trypsin was neutralized with 1:1 addition of Trypsin inhibitor (Sigma-Aldrich) and cells were pelleted by centrifugation at 1000RPM. Cell pellets were resuspended in N2/B27 medium (without growth factors) and plated onto a Matrigel precoated plate. In our experience, the single cell suspension of 100-150 EBs provided enough cells to seed one 24-well plate. […] At the end of 10 days, multiple neural processes can be visualized by phase contrast microscopy and cultures were either fixed with 4% PFA for immunohistochemistry or lysed to extract RNA in RLT buffer (Qiagen). […] CHIR withdrawal), or DAPT, a pro-differentiation agent (Crawford and Roelink, 2007) (FIG. 7J). […] This strategy was successful at restoring almost all dI identities in cultures taken from EBs both at the earliest passage and at the latest passage assessed (passage 7;

[2] = system: mESC-derived neurons; test: Single-cell RNA sequencing of day 9 cultures, assignment of dI identities; type: cell-based, mouse; settings: scRNA-Seq
Description: Preparation of single cell suspension: Day 9 cultures from both protocol1 (RA) and protocol3 (RA+BMP4) were dissociated with 0.25% cold trypsin for 5 mins. Trypsin activity was stopped with the addition of trypsin inhibitor (Sigma-Aldrich) in 1:1 ratio. Cells were then pelleted by centrifugation at 1000RPM and resuspended in 1× PBS. The ratio of viable cells was determined using Trypan blue staining. Dead cells were removed using MACS dead cell removal kit (Miltenyi Biotec Inc.) by following the manufacturer's protocol. Eluted live cells were then suspended in 1× PBS containing 0.04% BSA solution (400 μg/ml) for the library preparation.
Library preparation, and sequencing: ~10,000 live cells/conditions were used to construct single-cell specific cDNA libraries using protocol described in 10× Genomics chromium single cell 3′ reagent kit (v3.1 Chemistry). Briefly, cells were partitioned into nanoliter-scale Gel-Beads-in-emulsion (GEM) using the 10× Chromium controller. Each GEM contains a unique barcode which is shared among the cDNA generated from a single cell. Cells were then lysed, and cDNA synthesis and feature barcoding were performed in the GEMs. The sequencing libraries were recovered using Magnetic separation and the quantity and quality of cDNA were assessed by Agilent 2100 expert High Sensitivity DNA Assay. cDNA samples were sequenced on 1 lane of NovaSeq 6000 S2 flow cell and reads were mapped to mouse mm10 genome using Cell Ranger v.3.0.2 to generate fasq files.
Filtering genes and cells: Seurat package v3.1.1 was used for the analysis. For each condition, genes expressing in less than 3 cells were removed and cells with >250 features were retained. PCA was used for dimension reduction (npcs=50) with top 3000 most variable genes. Raw count data were normalized using regularized negative binomial regression with SCT transformation. Cell clustering is done using Shared Nearest Neighbor (SNN) Graph method and cluster specific markers were identified by Wilcox Rank Sum test.
Each cell cluster was annotated by a combination of the following methods 1) the expression of known canonical cell-type markers 2) Gene Set Enrichment Analysis (GSEA) of cluster specific markers determined by FindMarkers function in Seurat.
Reclustering of neuronal clusters: From the entire single-cell dataset, neuronal cells were first identified by the expression of pan-neuronal markers-Tubb3 and Elavl1/2. Roughly 30% cells express these markers in both protocol 1 and protocol 3 and were thus annotated as the mature neurons. The neuronal populations were then extracted using the Seurat package in R, by clustering the cells expressing Tubb3 >2 (median normalized log expression levels) using the Shared Nearest Neighbor (SNN) Graph method. […] Clusters were visualized with Uniform Manifold Approximation Projection (UMAP) method and the unique cluster-specific markers were identified using FindMarker function in Seurat.
To assess whether protocols 1 and 3 direct distinct classes of dIs, we obtained single-cell transcriptomes from 9,704 cells using protocol 1 and 13,121 cells using protocol 3, taken at day 9 of the differentiation procedure (FIG. 2A). We performed Louvain clustering followed by Uniform Manifold Approximation and Projection (UMAP) plots, to visualize groups of transcriptionally distinct cell types (Becht et al., 2018). This pipeline identified 21 dusters of cells in both protocol 1 (FIG. 2C) and protocol 3 (FIG. 2D). In both conditions, ~30% of cells identify as being stressed; they cluster separately and display <2000 RNA counts (FIGS. 2C, 2D, 9A, 9B). ~2-4% cells are pluripotent stem cells, marked by Sox2, Pou5f1 (Oct4) and Nanog expression, while 5-8% cells are non-neural, either of mesodermal or cardiac neural crest identity, expressing Twist1, Runx2, and Hand2 (Han et al., 2021; Soldatov et al., 2019; Vincentz et al., 2013) (FIGS. 2C, 2D, 9A, 9B). […]

Row | Structure (SMILES) | increase in the number of dI4/dI6s (Pax2+) compared to control ([1]; pulse between day 3 and 5 during differentiation of expanded EBs) | Tubb3+ (Tuj1+) neurons of unknown neural identity (no dI specific markers) [2] | Tubb3+ (Tuj1+) neurons that are dI1 [2] | Tubb3+ (Tuj1+) neurons that are dI2 [2] | Tubb3+ (Tuj1+) neurons that are dI4 [2] | Tubb3+ (Tuj1+) neurons that are dI5 [2] | Tubb3+ (Tuj1+) neurons that are dI6 [2] | identity of cultures kept in CHIR by day 10 ([1]; passage 6 or 7 EBs dissociated onto Matrigel) | effect of CHIR removal on differentiation ([1]; passage 6 or 7 EBs, day 10)
1 | CC1=C(/C=C/C(C)=C/C=C/C(C)=C/C(=O)O)C(C)(C)CCC1 [RA, retinoic acid] | ~ 6 fold | 8.5% and ~ 8.5% | 5% and 5.2% | 5% | ~ 33% and 33% | 40.5% and 40.6% | 8% and 7.6% |  | 
2 | Cc1c[nH]c(-c2cnc(NCCNc3ccc(C#N)cn3)nc2-c2ccc(Cl)cc2Cl)n1 [CHIR, CHIR99021] |  |  |  |  |  |  |  | continued to be solely Sox2^+ | removal of CHIR triggers spontaneous neural differentiation
